In patent publication US12338220B2, “Antiviral pyrazolopiridinone compounds” (Novartis AG, priority 2019, dated 2025):
Like-named read-outs stand apart in the source and are kept apart here.

Columns and labels:
CMV-polymerase = CMV-polymerase (Human cytomegalovirus (strain AD169) (HHV-5) (Human herpesvirus 5), UniProt P08546); assay: biochemical
HSV-polymerase = HSV-polymerase (Human herpesvirus 1 (strain 17) (HHV-1) (Human herpes simplex virus 1), UniProt P04293); assay: biochemical
CMV = assay: microbe, parasite or virus in culture; assay type: cell-based; details: Human betaherpesvirus 5, 72 h, read-out: CMV-Luc Cellular EC50, NN-NHDF cells, MOI 1, 72 hrs
[1] = read-out: CMV-polymerase Biochemical IC50
[2] = CMV-polymerase Biochemical IC50
[3] = read-out: HSV-polymerase Biochemical IC50

Row | Compound | IC50 (CMV-polymerase; [1]) | IC50 (HSV-polymerase) | EC50 (CMV) | IC50 (CMV-polymerase; [2]) | IC50 (HSV-polymerase; [3])
1 | Cn1nc(C(=O)NCc2ccc(C#N)cc2)c2c1C(=O)N(CC1(S(=O)(=O)C(F)F)CC1)CC2 [Example 38, N-(4-Cyanobenzyl)-6-((1-((difluoromethyl)sulfonyl)cyclopropyl)methyl)-1-methyl-7-oxo-4,5,6,7-tetrahydro-1H-pyrazolo[3,4-c]pyridine-3-carboxamide] | 14 nM | 784 nM | 607 nM | – | –
2 | [2H]C([2H])(O)C(C)(C)S(=O)(=O)C1(CN2CCc3c(C(=O)NCc4ccc(C#N)cc4)nn(C)c3C2=O)CC1 [Example 56, N-(4-Cyanobenzyl)-6-((1-((1-hydroxy-2-methylpropan-2-yl-1,1-d2)sulfonyl)cyclopropyl)methyl)-1-methyl-7-oxo-4,5,6,7-tetrahydro-1H-pyrazolo[3,4-c]pyridine-3-carboxamide] | – | 17 nM | 21 nM | 1 nM | –
3 | CC(=O)OCC(C)(C)S(=O)(=O)C1(CN2CCc3c(C(=O)NCc4ccc(C#N)cc4)nn(C)c3C2=O)CC1 [Example 57, 2-((1-((3-((4-Cyanobenzyl)carbamoyl)-1-methyl-7-oxo-4,5-dihydro-1H-pyrazolo[3,4-c]pyridin-6(7H)-yl)methyl)cyclopropyl)sulfonyl)-2-methylpropyl acetate] | 1 nM | 35 nM | 22 nM | – | –
4 | Cn1nc(C(=O)NCc2ccc(C#N)cc2)c2c1C(=O)N(CC1(S(=O)(=O)C(C)(C)CNC=O)CC1)CC2 [Example 71, N-(4-Cyanobenzyl)-6-((1-((1-formamido-2-methylpropan-2-yl)sulfonyl)cyclopropyl)methyl)-1-methyl-7-oxo-4,5,6,7-tetrahydro-1H-pyrazolo[3,4-c]pyridine-3-carboxamide] | – | 33 nM | 95 nM | 1 nM | –
5 | CC(=O)NCC(C)(C)S(=O)(=O)C1(CN2CCc3c(C(=O)NCc4ccc(C#N)cc4)nn(C)c3C2=O)CC1 [Example 72, 6-((1-((1-Acetamido-2-methylpropan-2-yl)sulfonyl)cyclopropyl)methyl)-N-(4-cyanobenzyl)-1-methyl-7-oxo-4,5,6,7-tetrahydro-1H-pyrazolo[3,4-c]pyridine-3-carboxamide] | – | 51 nM | 83 nM | 2 nM | –
6 | Cn1nc(C(=O)NCc2ccc(Cl)cc2)c2c1C(=O)N(CC1(S(=O)(=O)C(C)(C)COCCN)CC1)CC2 [Example 93, 6-((1-((1-(2-Aminoethoxy)-2-methylpropan-2-yl)sulfonyl)cyclopropyl)methyl)-N-(4-chlorobenzyl)-1-methyl-7-oxo-4,5,6,7-tetrahydro-1H-pyrazolo[3,4-c]pyridine-3-carboxamide] | 1 nM | 25 nM | 5 nM | – | –
7 | Cn1nc(C(=O)NCc2ccc(F)cc2)c2c1C(=O)N(CC1(S(=O)(=O)C(C)(C)COCCN)CC1)CC2 [Example 94, 6-((1-((1-(2-aminoethoxy)-2-methylpropan-2-yl)sulfonyl)cyclopropyl)methyl)-N-(4-fluorobenzyl)-1-methyl-7-oxo-4,5,6,7-tetrahydro-1H-pyrazolo[3,4-c]pyridine-3-carboxamide] | 9 nM | 54 nM | 22 nM | – | –
8 | Cn1nc(C(=O)NCc2ccc(Cl)cc2)c2c1C(=O)N(CC1(S(=O)(=O)C3(COCCN)CC3)CC1)CC2 [Example 95, 6-((1-((1-((2-Aminoethoxy)methyl)cyclopropyl)sulfonyl)cyclopropyl)methyl)-N-(4-chlorobenzyl)-1-methyl-7-oxo-4,5,6,7-tetrahydro-1H-pyrazolo[3,4-c]pyridine-3-carboxamide] | 2 nM | 25 nM | 11 nM | – | –
9 | Cn1nc(-c2cn(Cc3ccc(C#N)cc3)nn2)c2c1C(=O)N(CC1(S(=O)(=O)C(C)(C)CO)CC1)CC2 [Example 105, 4-((4-(6-((1-((1-Hydroxy-2-methylpropan-2-yl)sulfonyl)cyclopropyl)methyl)-1-methyl-7-oxo-4,5,6,7-tetrahydro-1H-pyrazolo[3,4-c]pyridin-3-yl)-1H-1,2,3-triazol-1-yl)methyl)benzonitrile] | 1 nM | 32 nM | 42 nM | – | –
10 | Cn1nc(C2=NO[C@@H](c3ccc(C#N)cc3)C2)c2c1C(=O)N(CC1(S(=O)(=O)C(C)(C)CO)CC1)CC2 [Example 107, (R)-4-(3-(6-((1-((1-Hydroxy-2-methylpropan-2-yl)sulfonyl)cyclopropyl)methyl)-1-methyl-7-oxo-4,5,6,7-tetrahydro-1H-pyrazolo[3,4-c]pyridin-3-yl)-4,5-dihydroisoxazol-5-yl)benzonitrile] | 872 nM | – | > 10000 nM | – | > 25000 nM
11 | Cn1nc(C2=NO[C@H](c3ccc(C#N)cc3)C2)c2c1C(=O)N(CC1(S(=O)(=O)C(C)(C)CO)CC1)CC2 [Example 108, (S)-4-(3-(6-((1-((1-hydroxy-2-methylpropan-2-yl)sulfonyl)cyclopropyl)methyl)-1-methyl-7-oxo-4,5,6,7-tetrahydro-1H-pyrazolo[3,4-c]pyridin-3-yl)-4,5-dihydroisoxazol-5-yl)benzonitrile] | 1 nM | – | 32 nM | – | 47 nM
12 | Cn1nc(C(=O)NCc2ccc(Cl)cc2)c2c1C(=O)N(CC1(S(=O)(=O)C(C)(C)C(N)=O)CC1)CC2 [Example 109, 6-((1-((1-amino-2-methyl-1-oxopropan-2-yl)sulfonyl)cyclopropyl)methyl)-N-(4-chlorobenzyl)-1-methyl-7-oxo-4,5,6,7-tetrahydro-1H-pyrazolo[3,4-c]pyridine-3-carboxamide] | 3 nM | 76 nM | 78 nM | – | –
13 | Cn1nc(C(=O)NCc2ccc(C#N)cc2)c2c1C(=O)N(CC1(S(=O)(=O)C(C)(C)CCO)CC1)CC2 [Example 113, N-(4-Cyanobenzyl)-6-((1-((4-hydroxy-2-methylbutan-2-yl)sulfonyl)cyclopropyl)methyl)-1-methyl-7-oxo-4,5,6,7-tetrahydro-1H-pyrazolo[3,4-c]pyridine-3-carboxamide] | 3 nM | 38 nM | 36 nM | – | –
14 | CNS(=O)(=O)C1(CN2CCc3c(C(=O)NCc4ccc(C#N)cc4)nn(C)c3C2=O)CC1 [Example 123, N-(4-cyanobenzyl)-1-methyl-6-((1-(N-methylsulfamoyl)cyclopropyl)methyl)-7-oxo-4,5,6,7-tetrahydro-1H-pyrazolo[3,4-c]pyridine-3-carboxamide] | 9 nM | 196 nM | 157 nM | – | –
15 | Cn1nc(C(=O)NCc2ccc(C#N)cc2)c2c1C(=O)N(CC1(S(=O)(=O)N3CC(O)C3)CC1)CC2 [Example 128, N-(4-Cyanobenzyl)-6-((1-((3-hydroxyazetidin-1-yl)sulfonyl)cyclopropyl)methyl)-1-methyl-7-oxo-4,5,6,7-tetrahydro-1H-pyrazolo[3,4-c]pyridine-3-carboxamide] | – | 137 nM | 94 nM | 5 nM | –
16 | Cc1cc(NS(=O)(=O)C2(CN3CCc4c(C(=O)NCc5ccc(C#N)cc5)nn(C)c4C3=O)CC2)no1 [Example 165, N-(4-cyanobenzyl)-1-methyl-6-((1-(N-(5-methylisoxazol-3-yl)sulfamoyl)cyclopropyl)methyl)-7-oxo-4,5,6,7-tetrahydro-1H-pyrazolo[3,4-c]pyridine-3-carboxamide] | 1 nM | 14 nM | 136 nM | – | –
